Among the data in patent US7943770B2, “Fused quinoline derivative and use thereof” (Takeda Pharmaceutical Company Limited, priority 2004, dated 2011) are IC50 values, retold here.

The test deals with T1, hNK2 receptor (Homo sapiens, UniProt P21452).
T1 construct: host or cells: CHO cells
T1 sequence (P21452 1-398): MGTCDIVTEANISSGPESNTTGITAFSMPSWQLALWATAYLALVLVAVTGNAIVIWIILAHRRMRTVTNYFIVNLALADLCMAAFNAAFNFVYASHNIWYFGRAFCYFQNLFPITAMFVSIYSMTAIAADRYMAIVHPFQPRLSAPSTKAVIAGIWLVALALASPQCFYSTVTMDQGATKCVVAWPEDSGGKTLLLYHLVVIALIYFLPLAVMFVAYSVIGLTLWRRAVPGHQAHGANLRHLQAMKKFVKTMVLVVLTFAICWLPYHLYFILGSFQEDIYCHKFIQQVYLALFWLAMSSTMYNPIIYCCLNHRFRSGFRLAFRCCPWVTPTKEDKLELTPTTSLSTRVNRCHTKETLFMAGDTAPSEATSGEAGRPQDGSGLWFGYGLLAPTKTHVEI
Description: Radio-ligand ([125I]-NKA) receptor binding inhibitory activity using membrane fraction of hNK2 receptor-expressing CHO cell. The note with it: membrane fraction of hNK2 receptor-expressing CHO cells, 25° C., 30 min. The procedure, abridged: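 Membranes from hNK2-expressing CHO cells (20 μg/mL suspension) incubated with test compound and [125I]-NKA ([…] solution as added) in Tris-HCl pH 7.4 with BSA, protease inhibitors, 3 mM MnCl2, 25 °C, 30 min. Bound radioactivity by GF/C filtration and scintillation; inhibition expressed relative to specific binding (total minus unlabeled-NKA non-specific).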
What is called IC50 is the concentration needed to halve the response being measured. Lower therefore signals inhibition by little substance. `O=C(N[C@@H]1CCCC[C@@H]1C(=O)N1CC[C@@H]2[C@H](c3ccco3)Nc3ccccc3[C@@H]21)c1ccccc1` (relative stereo) [Example 15, N-((1R,2S)-2-{[(3aR*,4R*,9bR*)-4-(2-Furyl)-2,3,3a,4,5,9b-hexahydro-1H-pyrrolo[3,2-c]quinolin-1-yl]carbonyl}cyclohexyl)benzamide]: the IC50 was below 10 nM.
Molecule `O=C(Nc1ccccc1)N[C@@H]1CCCC[C@@H]1C(=O)N1CC[C@@H]2[C@H](C3CC3)Nc3ccccc3[C@@H]21` [Example 183, N-((1R,2S)-2-{[(3aR,4S,9bR)-4-Cyclopropyl-2,3,3a,4,5,9b-hexahydro-1H-pyrrolo[3,2-c]quinolin-1-yl]carbonyl}cyclohexyl)-N′-phenylurea] returned a concentration for half-maximal inhibition (IC50) below 1 nM.
Regarding `O=C(N[C@@H]1CCCC[C@@H]1C(=O)N1CC[C@@H]2[C@H](c3ccccc3)Nc3ccccc3[C@@H]21)c1ccccc1` (relative stereo) [Example 1, N-((1R,2S)-2-{[(3aR*,4R*,9bR*)-4-Phenyl-2,3,3a,4,5,9b-hexahydro-1H-pyrrolo[3,2-c]quinolin-1-yl]carbonyl}cyclohexyl)benzamide], the IC50 was below 10 nM.
`COc1cccc(C(=O)N[C@@H]2CCCC[C@@H]2C(=O)N2CC[C@@H]3[C@H](c4ccccc4)Nc4ccccc4[C@@H]32)c1` [Example 95, 3-Methoxy-N-((1R,2S)-2-{[(3aR,4R,9bR)-4-phenyl-2,3,3a,4,5,9b-hexahydro-1H-pyrrolo[3,2-c]quinolin-1-yl]carbonyl}cyclohexyl)benzamide] returned an IC50 below 10 nM.
The figure for `CCC[C@@H]1Nc2ccccc2[C@H]2[C@@H]1CCN2C(=O)[C@H]1CCCC[C@H]1NC(=O)Nc1ccc(OC)cc1` [Example 196, N-(4-Methoxyphenyl)-N′-((1R,2S)-2-{[(3aR,4S,9bR)-4-propyl-2,3,3a,4,5,9b-hexahydro-1H-pyrrolo[3,2-c]quinolin-1-yl]carbonyl}cyclohexyl)urea] is below 1 nM; for `O=C(N[C@@H]1CCCC[C@@H]1C(=O)N1CC[C@@H]2[C@H](c3ccsc3)Nc3ccccc3[C@@H]21)c1ccccc1` [Example 60, N-((1R,2S)-2-{[(3aR,4R,9bR)-4-(3-Thienyl)-2,3,3a,4,5,9b-hexahydro-1H-pyrrolo[3,2-c]quinolin-1-yl]carbonyl}cyclohexyl)benzamide] it is below 1 nM.
In turn, `O=C(N[C@@H]1CCCC[C@@H]1C(=O)N1CC[C@@H]2[C@H](c3ccoc3)Nc3ccccc3[C@@H]21)c1ccccc1` [Example 63, N-((1R,2S)-2-{[(3aR,4R,9bR)-4-(3-Furyl)-2,3,3a,4,5,9b-hexahydro-1H-pyrrolo[3,2-c]quinolin-1-yl]carbonyl}cyclohexyl)benzamide] registered a half-inhibitory concentration (IC50) below 1 nM.
In the case of `O=C(N[C@@H]1CCCC[C@@H]1C(=O)N1CC[C@@H]2[C@H](C3CC3)Nc3ccccc3[C@@H]21)c1ccc(F)cc1` [Example 182, N-((1R,2S)-2-{[(3aR,4S,9bR)-4-Cyclopropyl-2,3,3a,4,5,9b-hexahydro-1H-pyrrolo[3,2-c]quinolin-1-yl]carbonyl}cyclohexyl)-4-fluorobenzamide], the IC50 was below 1 nM.
The molecule `O=C(N[C@@H]1CCCC[C@@H]1C(=O)N1CC[C@@H]2[C@H](c3ccccc3)Nc3ccccc3[C@@H]21)c1ccncc1` [Example 91, N-((1R,2S)-2-{[(3aR,4R,9bR)-4-Phenyl-2,3,3a,4,5,9b-hexahydro-1H-pyrrolo[3,2-c]quinolin-1-yl]carbonyl}cyclohexyl)isonicotinamide] returned an IC50 below 10 nM.
To `O=C(/C=C/c1cccs1)N[C@@H]1CCCC[C@@H]1C(=O)N1CC[C@@H]2[C@H](c3ncc[nH]3)Nc3ccccc3[C@@H]21` [Example 300, (2E)-N-((1R,2S)-2-{[(3aR,4R,9bR)-4-(1H-Imidazol-2-yl)-2,3,3a,4,5,9b-hexahydro-1H-pyrrolo[3,2-c]quinolin-1-yl]carbonyl}cyclohexyl)-3-thien-2-ylacrylamide] belongs below 1 nM; to `O=C(/C=C/c1c[nH]cn1)N[C@@H]1CCCC[C@@H]1C(=O)N1CC[C@@H]2[C@H](c3ccccc3)Nc3ccccc3[C@@H]21` [Example 128, (2E)-3-(1H-Imidazol-4-yl)-N-((1R,2S)-2-{[(3aR,4R,9bR)-4-phenyl-2,3,3a,4,5,9b-hexahydro-1H-pyrrolo[3,2-c]quinolin-1-yl]carbonyl}cyclohexyl)acrylamide], below 10 nM; to `COC[C@@H]1Nc2ccccc2[C@H]2[C@@H]1CCN2C(=O)[C@H]1CCCC[C@H]1NC(=O)c1ccc(N2CCN(C)CC2)cc1` [Example 267, N-((1R,2S)-2-{[(3aR,4R,9bR)-4-(Methoxymethyl)-2,3,3a,4,5,9b-hexahydro-1H-pyrrolo[3,2-c]quinolin-1-yl]carbonyl}cyclohexyl)-4-(4-methylpiperazin-1-yl)benzamide], below 10 nM.
`CCC[C@@H]1Nc2ccccc2[C@H]2[C@@H]1CCN2C(=O)[C@H]1CCCC[C@H]1NC(=O)Nc1ccc(F)cc1` [Example 197, N-(4-Fluorophenyl)-N′-((1R,2S)-2-{[(3aR,4S,9bR)-4-propyl-2,3,3a,4,5,9b-hexahydro-1H-pyrrolo[3,2-c]quinolin-1-yl]carbonyl}cyclohexyl)urea] registered an IC50 below 1 nM.
The molecule `O=C(N[C@@H]1CCCC[C@@H]1C(=O)N1CC[C@@H]2C(C3CCOCC3)Nc3ccccc3[C@@H]21)c1ccccc1` (stereo in doubt) [Example 79, N-((1R,2S)-2-{[(3aR,4R,9bR)-4-Tetrahydro-2H-pyran-4-yl-2,3,3a,4,5,9b-hexahydro-1H-pyrrolo[3,2-c]quinolin-1-yl]carbonyl}cyclohexyl)benzamide] returned an IC50 below 10 nM.
To `CCC[C@@H]1Nc2ccccc2[C@H]2[C@@H]1CCN2C(=O)[C@H]1CCCC[C@H]1NC(=O)c1ccc2[nH]c(C)nc2c1` [Example 201, 2-methyl-N-((1R,2S)-2-{[(3aR,4S,9bR)-4-propyl-2,3,3a,4,5,9b-hexahydro-1H-pyrrolo[3,2-c]quinolin-1-yl]carbonyl}cyclohexyl)-1H-benzimidazole-5-carboxamide] belongs below 1 nM.
With `O=C(N[C@@H]1CCCC[C@@H]1C(=O)N1CC[C@@H]2[C@H](c3ccccc3)Nc3ccccc3[C@@H]21)c1cccc(F)c1` [Example 96, 3-Fluoro-N-((1R,2S)-2-{[(3aR,4R,9bR)-4-phenyl-2,3,3a,4,5,9b-hexahydro-1H-pyrrolo[3,2-c]quinolin-1-yl]carbonyl}cyclohexyl)benzamide], the IC50 was below 10 nM.
With `O=C(N[C@@H]1CCCC[C@@H]1C(=O)N1CC[C@@H]2[C@H](c3ncc[nH]3)Nc3ccccc3[C@@H]21)c1ccc(F)c(Cl)c1` [Example 301, 3-Chloro-4-fluoro-N-((1R,2S)-2-{[(3aR,4R,9bR)-4-(1H-imidazol-2-yl)-2,3,3a,4,5,9b-hexahydro-1H-pyrrolo[3,2-c]quinolin-1-yl]carbonyl}cyclohexyl)benzamide], the IC50 is below 1 nM.
For the molecule `O=C(NCC[C@@H]1Nc2ccccc2[C@H]2[C@@H]1CCN2C(=O)[C@H]1CCCC[C@H]1NC(=O)c1ccccc1)OCc1ccccc1` [Example 68, Benzyl 2-((3aR,4S,9bR)-1-{[(1S,2R)-2-(benzoylamino)cyclohexyl]carbonyl}-2,3,3a,4,5,9b-hexahydro-1H-pyrrolo[3,2-c]quinolin-4-yl)ethylcarbate], the IC50 is below 10 nM.
`O=C(NCC(F)(F)F)N[C@@H]1CCCC[C@@H]1C(=O)N1CC[C@@H]2[C@H](c3ccccc3)Nc3ccccc3[C@@H]21` [Example 173, N-((1R,2S)-2-{[(3aR,4R,9bR)-4-Phenyl-2,3,3a,4,5,9b-hexahydro-1H-pyrrolo[3,2-c]quinolin-1-yl]carbonyl}cyclohexyl)-N′-(2,2,2-trifluoroethyl)urea] had an IC50 below 10 nM.
In turn, `NC(=O)c1ccc(C(=O)N[C@@H]2CCCC[C@@H]2C(=O)N2CC[C@@H]3[C@H](c4ccsc4)Nc4ccccc4[C@@H]32)cc1` [Example 190, N-((1R,2S)-2-{[(3aR,4R,9bR)-4-(3-Thienyl)-2,3,3a,4,5,9b-hexahydro-1H-pyrrolo[3,2-c]quinolin-1-yl]carbonyl}cyclohexyl)terephthalamide] showed an IC50 below 1 nM.
The molecule `O=C(N[C@@H]1CCCC[C@@H]1C(=O)N1CC[C@@H]2[C@H](c3ccc(F)cc3)Nc3ccccc3[C@@H]21)c1ccccc1` (relative stereo) [Example 9, N-((1R,2S)-2-{[(3aR*,4R*,9bR*)-4-(4-Fluorophenyl)-2,3,3a,4,5,9b-hexahydro-1H-pyrrolo[3,2-c]quinolin-1-yl]carbonyl}cyclohexyl)benzamide] showed a concentration for half-maximal inhibition (IC50) below 10 nM.
Molecule `O=C(N[C@@H]1CCCC[C@@H]1C(=O)N1CC[C@@H]2[C@H](c3ccccc3)Nc3ccccc3[C@@H]21)c1cccs1` [Example 89, N-((1R,2S)-2-{[(3aR,4R,9bR)-4-Phenyl-2,3,3a,4,5,9b-hexahydro-1H-pyrrolo[3,2-c]quinolin-1-yl]carbonyl}cyclohexyl)thiophene-2-carboxamide] displayed an IC50 below 10 nM.
In turn, `COc1ccc(C(=O)N[C@@H]2CCCC[C@@H]2C(=O)N2CC[C@@H]3[C@H](c4ccccc4)Nc4ccccc4[C@@H]32)cc1OC` [Example 104, 3,4-Dimethoxy-N-((1R,2S)-2-{[(3aR,4R,9bR)-4-phenyl-2,3,3a,4,5,9b-hexahydro-1H-pyrrolo[3,2-c]quinolin-1-yl]carbonyl}cyclohexyl)benzamide] returned an IC50 below 1 nM.
